In ChEMBL document CHEMBL3132854, “Synthesis and anticancer activity evaluation of resveratrolchalcone conjugates” (2014):

What was measured:
Assay type in all cases: functional
LOX IMVI = assay: Cytotoxicity against human LOXIMVI cells by sulforhodamine B assay
SR = assay: Cytotoxicity against human SR cells by sulforhodamine B assay
SNB-75 = assay: Cytotoxicity against human SNB75 cells by sulforhodamine B assay
BT-549 = assay: Cytotoxicity against human BT549 cells by sulforhodamine B assay
HCT-15 = assay: Cytotoxicity against human HCT15 cells by sulforhodamine B assay
OVCAR-3 = assay: Cytotoxicity against human OVCAR3 cells by sulforhodamine B assay
A549 = assay: Cytotoxicity against human A549/ATCC cells by sulforhodamine B assay
SK-OV-3 = assay: Cytotoxicity against human SKOV3 cells by sulforhodamine B assay
SF-539 = assay: Cytotoxicity against human SF539 cells by sulforhodamine B assay
[1] = Cytotoxicity against human NCI-ADR-RES cells by sulforhodamine B assay
[2] = read-out: LC50 (the source's name)

Compound: COc1ccc(C(=O)/C=C/c2ccc(/C=C/c3cc(OC)c(OC)c(OC)c3)cc2)cc1
- GI50 (LOX IMVI): 3.76 µM
- TGI (LOX IMVI): 60.9 µM
- CC50 (LOX IMVI; [2]): > 100 µM
- GI50 (SR): 1.98 µM
- TGI (SR): > 100 µM
- CC50 (SR; [2]): > 100 µM
- GI50 (SNB-75): 5.5 µM
- TGI (SNB-75): 47.7 µM
- CC50 (SNB-75; [2]): > 100 µM
- GI50 (BT-549): 3.36 µM
- TGI (BT-549): 16.8 µM
- CC50 (BT-549; [2]): > 100 µM
- GI50 (HCT-15): 2.42 µM
- TGI (HCT-15): > 100 µM
- CC50 (HCT-15; [2]): > 100 µM
- GI50 (OVCAR-3): 3.92 µM
- TGI (OVCAR-3): 14.3 µM
- CC50 (OVCAR-3; [2]): 74.4 µM
- GI50 (A549): 4.67 µM
- TGI (A549): 80.9 µM
- CC50 (A549; [2]): > 100 µM
- GI50 (SK-OV-3): 15.6 µM
- TGI (SK-OV-3): 64.5 µM
- CC50 (SK-OV-3; [2]): > 100 µM
- GI50 (SF-539): 12.2 µM
- TGI (SF-539): 78.3 µM
- CC50 (SF-539; [2]): > 100 µM
- GI50 [1]: 5.46 µM
- TGI [1]: > 100 µM
- CC50 [1, 2]: > 100 µM
